{"source": "ChEMBL document CHEMBL5331122", "about": "“Structure-Activity Relationship Study of Antimicrobial Peptide PE2 Delivered Novel Linear Derivatives with Potential of Eradicating Biofilms and Low Incidence of Drug Resistance” (J Med Chem, 2023)", "key": {"[1]": {"system": "Staphylococcus aureus", "test": "Antimicrobial activity against methicillin-resistant Staphylococcus aureus 74 assessed as inhibition of microbial growth incubated for 18 hrs by broth microdilution analysis", "type": "functional, organism-based", "details": "Staphylococcus aureus, 74, 18 h"}, "[2]": {"system": "Pseudomonas aeruginosa", "test": "Antimicrobial activity against Pseudomonas aeruginosa 86 assessed as inhibition of microbial growth incubated for 18 hrs by broth microdilution analysis", "type": "functional, organism-based", "details": "Pseudomonas aeruginosa, 86, 18 h"}, "[3]": {"system": "Staphylococcus aureus", "test": "Bactericidal activity against Staphylococcus aureus ATCC 25923 assessed as inhibition of bacterial growth at 2 times MIC measured upto 360 mins by time-kill assay", "type": "functional, organism-based"}, "[4]": {"system": "Escherichia coli", "test": "Antimicrobial activity against Escherichia coli 780 assessed as inhibition of microbial growth incubated for 18 hrs by broth microdilution analysis", "type": "functional, organism-based", "details": "Escherichia coli, 780, 18 h"}, "[5]": {"test": "Acute toxicity in Kunming mouse assessed as survival rate at 20 to 80 mg/kg, ip measured after 4 hrs", "type": "organism-based", "details": "in vivo, dose 20-80 mg/kg"}, "[6]": {"test": "Hemolytic activity in mouse red blood cells assessed as hemolysis at 128 microg/ml incubated for 1 hr relative to control", "type": "toxicity, cell-based, Erythrocyte", "details": "red blood cells (erythrocytes), read-out: Activity"}, "[7]": {"system": "Pseudomonas aeruginosa", "test": "Antimicrobial activity against Pseudomonas aeruginosa 124 assessed as inhibition of microbial growth incubated for 18 hrs by broth microdilution analysis", "type": "functional, organism-based", "details": "Pseudomonas aeruginosa, 124, 18 h"}, "[8]": {"system": "Staphylococcus aureus", "test": "Antimicrobial activity against methicillin-resistant Staphylococcus aureus 48 assessed as inhibition of microbial growth incubated for 18 hrs by broth microdilution analysis", "type": "functional, organism-based", "details": "Staphylococcus aureus, 48, 18 h"}, "[9]": {"system": "Staphylococcus aureus", "test": "Bactericidal activity against Staphylococcus aureus ATCC 25923 assessed as inhibition of bacterial growth at 2 times MIC measured at 30 mins by time-kill assay", "type": "functional, organism-based"}, "[10]": {"system": "Escherichia coli", "test": "Bactericidal activity against Escherichia coli ATCC 25922 assessed as inhibition of bacterial growth at 0.5 to 2 times MIC measured at 120 mins by time-kill assay", "type": "functional, organism-based"}, "[11]": {"system": "Staphylococcus aureus", "test": "Antimicrobial activity against methicillin-resistant Staphylococcus aureus 52 assessed as inhibition of microbial growth incubated for 18 hrs by broth microdilution analysis", "type": "functional, organism-based", "details": "Staphylococcus aureus, 52, 18 h"}, "[12]": {"system": "Klebsiella pneumoniae", "test": "Antibacterial activity against Klebsiella pneumoniae ATCC 700603 infected in BALB/c mouse pneumonia model assessed as alveolar expansion at 10 mg/kg, ip measured at 4 to 12 hrs by hematoxylin and eosin staining based analysis", "type": "functional, organism-based", "details": "time 4-12 hrs"}, "[13]": {"system": "Klebsiella pneumoniae", "test": "Antibacterial activity against Klebsiella pneumoniae ATCC 700603 infected in BALB/c mouse pneumonia model assessed as reduction in infiltration of inflammatory cells at 10 mg/kg, ip measured at 4 to 12 hrs by hematoxylin and eosin staining based analysis", "type": "functional, organism-based", "details": "time 4-12 hrs"}, "[14]": {"system": "Escherichia coli", "test": "Antimicrobial activity against Escherichia coli 850 assessed as inhibition of microbial growth incubated for 18 hrs by broth microdilution analysis", "type": "functional, organism-based", "details": "Escherichia coli, 850, 18 h"}, "[15]": {"system": "Staphylococcus aureus", "test": "Antimicrobial activity against methicillin-resistant Staphylococcus aureus 54 assessed as inhibition of microbial growth incubated for 18 hrs by broth microdilution analysis", "type": "functional, organism-based", "details": "Staphylococcus aureus, 54, 18 h"}, "[16]": {"system": "Staphylococcus aureus", "test": "Antimicrobial activity against methicillin-resistant Staphylococcus aureus 936 assessed as inhibition of microbial growth incubated for 18 hrs by broth microdilution analysis", "type": "functional, organism-based", "details": "Staphylococcus aureus, 936, 18 h"}, "[17]": {"system": "Escherichia coli", "test": "Antimicrobial activity against Escherichia coli 804 assessed as inhibition of microbial growth incubated for 18 hrs by broth microdilution analysis", "type": "functional, organism-based", "details": "Escherichia coli, 804, 18 h"}, "[18]": {"system": "Pseudomonas aeruginosa", "test": "Antimicrobial activity against Pseudomonas aeruginosa 119 assessed as inhibition of microbial growth incubated for 18 hrs by broth microdilution analysis", "type": "functional, organism-based", "details": "Pseudomonas aeruginosa, 119, 18 h"}, "[19]": {"system": "Erythrocyte", "test": "Hemolytic activity in mouse red blood cell assessed as hemolysis incubated for 1 hr", "type": "toxicity, cell-based", "details": "dose 4-256 µg/ml"}, "[20]": {"system": "Escherichia coli", "test": "Antimicrobial activity against Escherichia coli ATCC 25922 assessed as reduction in microbial growth measured for 18 hrs in presence of […] microg/ml LPS", "type": "functional, organism-based"}, "[21]": {"test": "Hemolytic activity in mouse red blood cells assessed as hemolysis at 256 microg/ml incubated for 1 hr relative to control", "type": "toxicity, cell-based, Erythrocyte", "details": "red blood cells (erythrocytes), at 256 µg/mL, read-out: Activity"}, "[22]": {"system": "Staphylococcus aureus", "test": "Bactericidal activity against Staphylococcus aureus ATCC 25923 assessed as inhibition of bacterial growth at 0.5 to 2 times MIC measured at 180 mins by time-kill assay", "type": "functional, organism-based"}, "[23]": {"system": "Staphylococcus aureus", "test": "Bactericidal activity against Staphylococcus aureus ATCC 25923 assessed as inhibition of bacterial growth at 2 times MIC measured at 120 mins by time-kill assay", "type": "functional, organism-based"}, "[24]": {"test": "Acute toxicity in Kunming mouse assessed as survival rate at 20 to 60 mg/kg, ip measured after 4 hrs", "type": "organism-based", "details": "in vivo, dose 20-60 mg/kg"}, "[25]": {"system": "Escherichia coli", "test": "Synergistic antibacterial activity against Escherichia coli ATCC 25922 assessed as fractional inhibitory concentration index incubated for 18 hrs in presence of gentamycin by checkerboard assay", "type": "functional"}, "[26]": {"system": "Escherichia coli", "test": "Synergistic antibacterial activity against Escherichia coli ATCC 25922 assessed as fractional inhibitory concentration index incubated for 18 hrs in presence of rifampicin by checkerboard assay", "type": "functional"}, "[27]": {"system": "Escherichia coli", "test": "Synergistic antibacterial activity against Escherichia coli ATCC 25922 assessed as fractional inhibitory concentration index incubated for 18 hrs in presence of PMB by checkerboard assay", "type": "functional"}, "[28]": {"system": "Staphylococcus aureus", "test": "Bactericidal activity against Staphylococcus aureus ATCC 25923 assessed as inhibition of bacterial growth at 2 times MIC measured at 60 mins by time-kill assay", "type": "functional, organism-based"}, "[29]": {"system": "Escherichia coli", "test": "Bactericidal activity against Escherichia coli ATCC 25922 assessed as inhibition of bacterial growth at 1 times MIC measured at 120 mins by time-kill assay", "type": "functional, organism-based"}, "[30]": {"system": "Escherichia coli", "test": "Bactericidal activity against Escherichia coli ATCC 25922 assessed as inhibition of bacterial growth at 0.5 to 2 times MIC measured at 90 mins by time-kill assay", "type": "functional, organism-based"}}, "note": "Activity calls are given as the source filed them. No cut-off for these calls is given here."}
{"smiles": "CCCCCCCC(=O)N[C@@H](CCN)C(=O)N[C@H](C(=O)N[C@@H](CCN)C(=O)N[C@H](Cc1ccccc1)C(=O)N[C@@H](CC(C)C)C(=O)N[C@@H](CCN)C(=O)N[C@@H](C(=O)N[C@@H](CC(C)C)C(=O)N[C@@H](Cc1ccc(O)cc1)C(N)=O)C(C)C)[C@@H](C)CC", "values": [{"measurement": "EC50", "setting": "[1]", "value": 5.1, "unit": "µg/mL"}, {"measurement": "EC50", "setting": "[2]", "value": 2.08, "unit": "µg/mL"}, {"measurement": "Activity", "setting": "[3]", "value": "Active"}, {"measurement": "EC50", "setting": "[4]", "value": 2.55, "unit": "µg/mL"}, {"measurement": "Activity", "setting": "[5]", "value": "Toxic"}, {"measurement": "hemolysis at 1 h, 128 µg/mL", "setting": "[6]", "value": 10, "unit": "%"}, {"measurement": "EC50", "setting": "[7]", "value": 2.76, "unit": "µg/mL"}, {"measurement": "EC50", "setting": "[8]", "value": 5.48, "unit": "µg/mL"}, {"measurement": "Activity", "setting": "[9]", "value": "Active"}, {"measurement": "Activity", "setting": "[10]", "value": "Active"}, {"measurement": "EC50", "setting": "[11]", "value": 4.46, "unit": "µg/mL"}, {"measurement": "Activity", "setting": "[12]", "value": "Active"}, {"measurement": "Activity", "setting": "[13]", "value": "Active"}, {"measurement": "EC50", "setting": "[14]", "value": 2.42, "unit": "µg/mL"}, {"measurement": "EC50", "setting": "[15]", "value": 4.33, "unit": "µg/mL"}, {"measurement": "EC50", "setting": "[16]", "value": 6.12, "unit": "µg/mL"}, {"measurement": "EC50", "setting": "[17]", "value": 2.36, "unit": "µg/mL"}, {"measurement": "EC50", "setting": "[18]", "value": 2.31, "unit": "µg/mL"}, {"measurement": "HC10", "setting": "[19]", "value": 128, "unit": "µg/mL"}, {"measurement": "Activity", "setting": "[20]", "value": "Active"}]}
{"smiles": "CCCCCCC(=O)N[C@@H](CCN)C(=O)N[C@H](C(=O)N[C@@H](CCN)C(=O)N[C@H](Cc1ccccc1)C(=O)N[C@@H](CC(C)C)C(=O)N[C@@H](CCN)C(=O)N[C@@H](C(=O)N[C@@H](CC(C)C)C(=O)N[C@@H](Cc1ccc(O)cc1)C(N)=O)C(C)C)[C@@H](C)CC", "values": [{"measurement": "hemolysis at 1 h, 256 µg/mL", "setting": "[21]", "value": "< 10", "unit": "%"}, {"measurement": "Activity", "setting": "[22]", "value": "Active"}, {"measurement": "Activity", "setting": "[10]", "value": "Active"}, {"measurement": "Activity", "setting": "[23]", "value": "Active"}, {"measurement": "Activity", "setting": "[24]", "value": "Toxic"}, {"measurement": "fractional inhibitory concentration index (FICI)", "setting": "[25]", "value": 0.5}, {"measurement": "fractional inhibitory concentration index (FICI)", "setting": "[26]", "value": 0.312}, {"measurement": "HC10", "setting": "[19]", "value": 512, "unit": "µg/mL"}, {"measurement": "fractional inhibitory concentration index (FICI)", "setting": "[27]", "value": 0.312}]}
{"smiles": "CC[C@H](C)[C@@H]1NC(=O)[C@H](CCN)NC(=O)C[C@@H](C(C)C)OC(=O)[C@H]([C@@H](C)O)NC(=O)[C@H](CC(C)C)NC(=O)[C@@H](C(C)C)NC(=O)[C@H](CCN)NC(=O)[C@H](CC(C)C)NC(=O)[C@@H](Cc2ccccc2)NC(=O)[C@H](CCN)NC1=O", "values": [{"measurement": "Activity", "setting": "[28]", "value": "Active"}, {"measurement": "Activity", "setting": "[29]", "value": "Active"}, {"measurement": "Activity", "setting": "[30]", "value": "Active"}]}
